In patent publication US9877918B2, “Long-lasting controlled-release liposome composition and method for producing same” (TERUMO KABUSHIKI KAISHA, priority 2011, dated 2018):
Structures can show the parent of a compound that is named as a salt.

Experiment: Bupivacaine hydrochloride retention in the administration site after subcutaneous administration
Assay type: in vivo
Conditions: rat, SC 3.5 mg/kg, four hours after the administration
Experimental: (6) Concentration of Bupivacaine Hydrochloride in Tissue (mg/mL): Sampled tissue was treated, and, for a supernatant obtained finally by centrifugation, absorbance at 210 nm was determined by high performance liquid chromatography using a UV-visible absorptiometer, to thereby measure the concentration of bupivacaine hydrochloride in the tissue.
The bupivacaine hydrochloride liposome preparation prepared in Preparation Example 16 and bupivacaine hydrochloride used alone were subjected to a pharmacokinetic test. The liposome preparation and bupivacaine hydrochloride used alone were administered subcutaneously into a back part of a rat in respective doses as set forth in Table 11 while the doses are set as the amount of bupivacaine hydrochloride. After the lapse of 1, 24, 72, 120, and 168 hours from the administration of the bupivacaine hydrochloride liposome composition, and after the lapse of 0.5, 4, and 24 hours from the administration of bupivacaine hydrochloride used alone, a subcutaneous tissue of the back part in the administration site was sampled and subjected to a homogenizing treatment. […]

retention rate in the administration site: below 1%
SMILES: CCCCN1CCCCC1C(=O)Nc1c(C)cccc1C (stereo not shown) [bupivacaine hydrochloride used alone, Bupivacaine Hydrochloride]
